Results on two molecules are retold here after publication PMC2099433, “The binding site for neohesperidin dihydrochalcone at the human sweet taste receptor” (BMC Structural Biology, 2007).

SMILES strings stand for the structures. Substitutions are numbered along the chain they refer to. Where a SMILES comes first, the peptide text is derived from it.

Test [1] has as its target T1, hTAS1R2 + hTAS1R3 R790Q^ex3 (Homo sapiens, UniProt Q7RTX0+Q8TE23, R790Q).
T1 construct: expressed in transfected cells; host or cells: HEK293T cells stably expressing G16Gust44
T1 sequence (Q8TE23 20-839): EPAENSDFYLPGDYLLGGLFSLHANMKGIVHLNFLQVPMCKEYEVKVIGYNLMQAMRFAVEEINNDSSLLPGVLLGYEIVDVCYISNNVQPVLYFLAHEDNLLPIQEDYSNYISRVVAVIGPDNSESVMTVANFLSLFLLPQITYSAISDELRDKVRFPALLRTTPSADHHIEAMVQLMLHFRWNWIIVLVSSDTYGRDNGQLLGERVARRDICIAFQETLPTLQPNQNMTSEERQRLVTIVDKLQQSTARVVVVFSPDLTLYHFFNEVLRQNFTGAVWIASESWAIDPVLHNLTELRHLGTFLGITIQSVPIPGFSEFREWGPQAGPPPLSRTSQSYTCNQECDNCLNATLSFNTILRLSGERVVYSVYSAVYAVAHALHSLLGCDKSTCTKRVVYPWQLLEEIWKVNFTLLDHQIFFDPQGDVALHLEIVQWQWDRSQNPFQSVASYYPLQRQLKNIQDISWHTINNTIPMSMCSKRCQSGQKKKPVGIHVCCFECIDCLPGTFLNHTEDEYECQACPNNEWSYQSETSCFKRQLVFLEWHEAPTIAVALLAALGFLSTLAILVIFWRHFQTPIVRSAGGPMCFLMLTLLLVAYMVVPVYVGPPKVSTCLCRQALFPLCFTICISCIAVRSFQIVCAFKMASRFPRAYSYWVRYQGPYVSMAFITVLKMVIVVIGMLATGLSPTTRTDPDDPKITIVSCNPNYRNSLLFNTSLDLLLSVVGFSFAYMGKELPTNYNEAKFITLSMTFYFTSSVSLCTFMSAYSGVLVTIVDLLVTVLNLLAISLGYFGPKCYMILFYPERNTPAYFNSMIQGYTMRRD
T1 sequence (Q7RTX0 21-852 R790Q): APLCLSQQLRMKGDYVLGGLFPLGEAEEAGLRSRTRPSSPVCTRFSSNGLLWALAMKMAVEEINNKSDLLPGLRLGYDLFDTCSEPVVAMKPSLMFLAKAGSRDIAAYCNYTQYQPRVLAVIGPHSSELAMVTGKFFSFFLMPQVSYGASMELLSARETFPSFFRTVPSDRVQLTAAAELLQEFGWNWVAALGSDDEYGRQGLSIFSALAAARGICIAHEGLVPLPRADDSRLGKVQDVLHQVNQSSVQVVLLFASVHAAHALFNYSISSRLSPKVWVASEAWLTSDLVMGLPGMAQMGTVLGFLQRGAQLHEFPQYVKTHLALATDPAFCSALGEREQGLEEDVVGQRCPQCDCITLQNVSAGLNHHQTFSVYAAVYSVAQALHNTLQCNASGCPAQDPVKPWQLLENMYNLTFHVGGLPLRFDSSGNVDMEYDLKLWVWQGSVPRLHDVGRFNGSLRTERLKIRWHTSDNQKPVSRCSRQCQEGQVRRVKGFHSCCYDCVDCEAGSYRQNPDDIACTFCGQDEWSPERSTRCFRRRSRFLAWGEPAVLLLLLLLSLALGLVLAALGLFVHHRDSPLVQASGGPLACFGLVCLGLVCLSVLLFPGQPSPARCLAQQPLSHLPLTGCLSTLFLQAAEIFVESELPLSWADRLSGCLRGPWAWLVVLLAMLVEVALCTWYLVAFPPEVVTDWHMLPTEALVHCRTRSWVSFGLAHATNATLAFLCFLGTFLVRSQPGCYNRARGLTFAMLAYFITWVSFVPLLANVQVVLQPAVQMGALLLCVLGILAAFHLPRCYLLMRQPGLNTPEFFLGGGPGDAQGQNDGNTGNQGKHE
Kind of test: Calcium response (FLIPR), hTAS1R3 mutant coexpressed with hTAS1R2. The class given is cell-based. The following applies: variant R790Q^ex3; for Emax: read-out: maximal signal (% of wt). Summed up:
(§1)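 HEK293T cells stably expressing chimeric G16Gust44 were transiently transfected with C-terminally HSV-tagged hTAS1R2 and mutant hTAS1R3, then loaded 24 h later with Fluo4-AM for 1 h. Calcium mobilization after sweet-tastant application was read by FLIPR, mock-corrected and expressed as ΔF/F.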

For test [2], the target named is T2, hTAS1R2 + hTAS1R3 F778A^6.51 (Homo sapiens, UniProt Q7RTX0+Q8TE23, F778A).
T2 construct: expressed in transfected cells; host or cells: HEK293T cells stably expressing G16Gust44
T2 sequence (Q8TE23 20-839): T1 sequence (Q8TE23 20-839)
T2 sequence (Q7RTX0 21-852 F778A): T1 sequence (Q7RTX0 21-852 R790Q) with F758A, Q770R
The test is described as above. The class given is cell-based. The conditions noted are these: variant F778A^6.51; for Emax: read-out: maximal signal (% of wt). In a few lines:
as §1

Broadly, the EC50 is the concentration giving half of the maximal effect. Regarding `COc1ccc(CCC(=O)c2c(O)cc(O[C@@H]3O[C@H](CO)[C@@H](O)[C@H](O)[C@H]3O[C@@H]3O[C@@H](C)[C@H](O)[C@@H](O)[C@H]3O)cc2O)cc1O` [NHDC, neohesperidin dihydrochalcone], in test [1], the half-maximal effective concentration (EC50) amounted to 100 ± 60 µM and the Emax amounted to 77 ± 15%. Further, in test [2], the EC50 was 1500 ± 400 µM and the Emax came out at 50 ± 18%.
Take `COC(=O)[C@H](Cc1ccccc1)NC(=O)[C@@H](N)CC(=O)O` [aspartame] (HELM PEPTIDE1{D.F.[CO[*:1]]}$$$$V2.0): the EC50 amounted to 900 ± 400 µM in test [1] and 1200 ± 100 µM in test [2]. The results for the Emax in test [1] and in test [2] were 71 ± 30% and 80 ± 80%, respectively.
